# Entries after “also recorded” stand apart in the source; their conditions may differ. Like-named read-outs stand apart in the source and are kept apart here.
# Tests used:
# AUD = conditions: early uncontrolled studies; cited from earlier work
# [1] = cited from earlier work
# alcohol relapse = conditions: only in conjunction with psychosocial interventions; cited from earlier work
# [2] = cited from earlier work; remark: listed apart in the source
# patients with AUD [3] = assay: Profile Of Mood States (POMS), seven-day follow-up after MDMA sessions (Example 8); type: in vivo, human; conditions: daily for seven days after each MDMA session; 14 participants, 26 sessions
# Text: (§1) Following the end of the eight-week therapeutic course, participants carried out additional follow-up questionnaires.
# Seven-day follow-up after MDMA sessions: Considerable medical literature and the popular press report the anecdotal observation of ecstasy users experiencing an acute ‘come-down’ effect and a drop in mood in the days after using the drug recreationally. In order to measure this prospectively with clinical MDMA, we measured participants' mood states by daily Profile Of Mood States (POMS) measurements for seven days after each MDMA session (see FIG. 9). Positive scores represent depressed affect, zero represents no change in mood/affect and results below zero represent a positively felt mood.
# patients with AUD [4] = assay: Adverse events and tolerability (Example 8); type: in vivo, human
# Description: This Example details an open-label, within-subjects, safety and tolerability feasibility study that was conducted in 14 patients aged 18-65 years old diagnosed with AUD who had recently undergone detoxification, and received MDMA-assisted therapy.
# (§2) Dosing with MDMA occurred twice during the eight-week course on weeks 3 and 6.
# patients with AUD [5] = assay: Suicidality, C-SSRS (Example 8); type: in vivo, human; conditions: during the course of the study
# Text: as §1
# Suicidality. Participants underwent the C-SSRS at screening, baseline, throughout the eight-week therapy course, in the week after each MDMA session and at the three-, six-, and nine-month follow-up visits.
# CYP3A4 = CYP3A4 (Homo sapiens, UniProt P08684); conditions: single dose of MDMA of 1.5 mg/kg; cited from earlier work
# patients with AUD [6] = assay: Drinking behavior (TLFB, units of alcohol per week), open-label MDMA-assisted therapy study in AUD post-detox (Example 8); type: in vivo, human
# patients with AUD [7] = assay: PHQ-9, GAD-7, psychosocial functioning and quality of life measures (Example 8); type: in vivo, human
# patients with AUD [8] = assay: Physiological measures, SUDS and Drug Effects during MDMA sessions (Example 8); type: in vivo, human
# Description: as §2
# Physiological and tolerability effects during MDMA sessions: In total, 26 drug-assisted psychotherapy sessions with MDMA were administered during the trial. Temperature, blood pressure and heart rate were measured at t=0, before taking MDMA, then half-hourly up to t=2 hours, then hourly thereafter for a minimum of 6-hours from the time of dosing (see FIG. 7).
# Subjective Units of Distress (SUDS) and Participant report of Drug Effects were also measured, hourly, throughout the MDMA sessions (see FIG. 7). […] Participants gave their own subjective score (0-10) of whether they felt Drug Effects, and the therapists also recorded their own objective score of how “altered” the participant appeared. There was no significant difference between Observers' and Participants' Drug Effects scores. Drug Effects rose expectedly over the first two hours, with a notable further increase after the booster dose was given at t=2 hours, and a subsequent plateau then decline over the following six hours.
# [9] = tested on: patients diagnosed with AUD; assay: Depression and anxiety levels, FIG. 3 and FIG. 4; type: in vivo, human; conditions: patients remaining at 9 months; 100% at screening
# Description: Prior to undergoing the disclosed methods, specifically during the screening session, 12 patients were assessed for levels of depression. […] Directly after going through the detoxification process (noted as “baseline” in FIG. 3), one patient had mild depression, two had moderate depression, zero had moderately severe depression, and two had severe depression (out of 11 patients remaining in the study). The patients were then reassessed at 3, 6, and 9 months post-baseline (i.e., after completing a detoxification course, and prior to beginning the MDMA-assisted therapy regimen), wherein it was discovered that, at 3 months, two had mild depression, one had moderate depression, three had moderately severe depression, and one had severe depression (out of 9 patients remaining in the study); at 6 months, no patients suffered from mild or moderate depression, two had moderate severe depression, and one had severe depression (out of 6 patients remaining in the study); finally, at 9 months, one patient had mild depression, one had moderate depression, and one had moderate severe depression, with none having severe depression.
# Prior to undergoing the disclosed methods, specifically during the screening session, 12 patients were assessed for levels of anxiety. […]
# individuals with PTSD = conditions: cited from earlier work
# [10] = cited from earlier work; remark: listed apart in the source
# [11] = cited from earlier work; remark: listed apart in the source
# [12] = doses of 100-125 mg; cited from earlier work
# [13] = nine-month follow-up end point, of 14 participants
# CYP3A4, sequence (P08684 whole entry): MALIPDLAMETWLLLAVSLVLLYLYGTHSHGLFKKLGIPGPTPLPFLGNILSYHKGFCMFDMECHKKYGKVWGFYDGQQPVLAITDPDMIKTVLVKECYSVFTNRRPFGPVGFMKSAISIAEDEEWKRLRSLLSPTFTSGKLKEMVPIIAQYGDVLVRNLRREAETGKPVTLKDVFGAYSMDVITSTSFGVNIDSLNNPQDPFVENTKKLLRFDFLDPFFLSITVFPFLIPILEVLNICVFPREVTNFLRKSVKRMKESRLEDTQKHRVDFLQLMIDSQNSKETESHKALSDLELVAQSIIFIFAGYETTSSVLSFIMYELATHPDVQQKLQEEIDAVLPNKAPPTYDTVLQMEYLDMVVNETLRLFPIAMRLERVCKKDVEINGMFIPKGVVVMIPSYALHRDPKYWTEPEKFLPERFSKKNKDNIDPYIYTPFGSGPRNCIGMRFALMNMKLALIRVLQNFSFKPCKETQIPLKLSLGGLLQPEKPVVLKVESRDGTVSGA
structure (smiles),measurement,setting,value
CCN(CC)C(=O)[C@@H]1C=C2c3cccc4[nH]cc(c34)C[C@H]2N(C)C1 [LSD],abstinence rates,AUD,30-50%
CNC(C)Cc1ccc2c(c1)OCO2 (stereo not shown) [MDMA base],solubility in water,[1],insoluble in water
O=C1CC[C@@]2(O)[C@H]3Cc4ccc(O)c5c4[C@@]2(CCN3CC2CC2)[C@H]1O5 [naltrexone],effect in relapse prevention,alcohol relapse,only minor positive effects in relapse prevention
CC(=O)NCCCS(=O)(=O)O [acamprosate],effect in relapse prevention,alcohol relapse,only minor positive effects in relapse prevention
"CNC(C)Cc1ccc2c(c1)OCO2 (stereo not shown) [MDMA, 1-(1,3-benzodioxol-5-yl)-N-methylpropan-2-amine]",time to peak plasma concentration,"[2]; humans, doses 100-125 mg",2 to 3 h
same,elimination half-life,[2]; similar results for doses 50-125 mg,7 to 9 h
same,POMS mood disturbance,patients with AUD [3],no evidence of any mood disturbance; also recorded: sustained a positive mood for seven days
same,tolerability of MDMA treatment,"patients with AUD [4]; AUD post-detox, 187.5 mg each session",well-tolerated by all participants
same,desire to use illicit ecstasy/illicit MDMA,patients with AUD [4]; following clinical MDMA,No participants reported any desire to use illicit ecstasy/illicit MDMA
same,psychotic symptoms,patients with AUD [4]; in vivo,No psychotic symptoms were observed
same,"C-SSRS suicidal ideation, intent or plans or self-harm behavior",patients with AUD [5],"No participants reported current suicidal ideation, intent or plans or self-harm behavior"
same,CYP3A4 activity,CYP3A4,decrease in CYP3A4 activity
same,decrease in alcohol consumption,patients with AUD [6]; 3 months post-detox vs pre-detox,87.1%
same,decrease in alcohol consumption,patients with AUD [6]; 6 months post-detox vs pre-detox,71%
same,units of alcohol per week,"patients with AUD [6]; 6 months post-detox, 130.6 units per week pre-detox",38.0 units of alcohol per week
same,decrease in alcohol consumption,patients with AUD [6]; 9 months post-detox vs pre-detox,85.7%
same,average units of alcohol consumption per week,"patients with AUD [6]; 9 months post-detox, 130.6 units per week pre-detox",18.7 units/week
same,outcomes of other comorbid addictions (SUDs and BAs),patients with AUD [6]; along the course of treatment,unexpectedly improved outcomes of other comorbid addictions
same,participants drinking fewer than 14 units of alcohol per week,patients with AUD [6]; [13],11 participants
same,participants relapsed to drinking more than 14 units of alcohol per week,patients with AUD [6]; [13],three
same,participants totally abstinent from alcohol,patients with AUD [6]; [13],nine
same,participants drinking in excess of 14 units of alcohol a week,"patients with AUD [6]; over 9 months, 75% in the Outcomes Study without MDMA",21%
same,PHQ-9 and GAD-7 scores,patients with AUD [7]; after screening and baseline time points,reduction in both anxiety and depression
same,psychosocial functioning,patients with AUD [7]; in vivo,improved across the cohort
same,"quality of sleep, quality of life, compassion and empathy scales",patients with AUD [7]; in vivo,demonstrating benefits and improvements
same,"temperature, blood pressure and heart rate during MDMA sessions","patients with AUD [8]; 26 sessions, except for one participant",remained within normal limits
same,Drug Effects scores (0-10),patients with AUD [8]; by the end of the MDMA session day,all drug effects had returned to baseline
same,Subjective Units of Distress (SUDS),patients with AUD [8]; hourly during the MDMA session,subsequently reduced during the course of the session
same,"rise in blood pressure, temperature and heart rate over the course of the MDMA session",patients with AUD [8]; in vivo,"mild, transient rise"
same,neurocognitive impairments,patients with AUD [8]; weeks and months following participation,No participants reported any significant neurocognitive impairments
same,patients found to have anxiety,[9],about 67%
same,patients found to have depression,[9],50%
same,"effect size, self-reported improvement","individuals with PTSD; 12 subjects, Oehen 2013",1.1
same,"symptom relief, long-term follow-up","individuals with PTSD; chronic, treatment-resistant PTSD, Mithoefer 2010, 2013",statistically and clinically-significant gains in symptom relief with no subjects reporting harm
same,safety and tolerability,"individuals with PTSD; phase 3, severe PTSD, even with comorbidities",safe and well-tolerated
same,efficacy vs therapy with inactive placebo,"individuals with PTSD; phase 3, severe PTSD, Mitchell 2021",highly efficacious
same,serious adverse reaction,"[10]; 125 mg MDMA, third of three MDMA-assisted sessions, one individual",increased frequency of ventricular extrasystoles (PVCs)
same,commonly reported effects,[10]; Phase 1 studies in healthy volunteers,"elevation in blood pressure and heart rate, increased anxiety or dysphoria, and dilated pupils"
same,time of peak subjective effects,"[11]; 100 mg MDMA, healthy volunteers, brain imaging studies",100 min
same,duration of subjective effects,"[11]; 100 mg MDMA, healthy volunteers",approximately 4.5 hours
same,time of peak subjective effects,[11]; Harris 2002,90 to 120 min
same,time to return to baseline values,[11]; Harris 2002,5 to 6 h
same,time to subjective effects,[11]; Harris 2002,approximately 45 mins
same,duration of effects,[11]; one dose,4 to 5 h
same,onset of action,"[11]; patients with PTSD, after the initial dose",45 to 75 min
same,time of peak drug effects,[11]; patients with PTSD,2 to 5 h
same,duration of effects,[11]; with the booster dose,5 to 6 h
same,increase in diastolic blood pressure,[12],14.4-25 mmHg
same,increase in heart rate,[12],26-30 bpm
